Ten compounds from ChEMBL document CHEMBL1137472, “Discovery of potent HIV-1 protease inhibitors incorporating sulfoximine functionality” (Bioorg Med Chem Lett, 2007) can be followed below.

Sequence of Protease (Q9YQ12 whole entry): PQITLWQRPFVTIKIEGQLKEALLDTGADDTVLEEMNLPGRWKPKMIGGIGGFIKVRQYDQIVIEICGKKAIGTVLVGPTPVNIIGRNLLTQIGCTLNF
Sequence of Protease (Human immunodeficiency virus 1) (Q9YQ12 as listed by the source): as the sequence (Q9YQ12 whole entry) above

For the first experiment, the system named is Human immunodeficiency virus 1. In words: Antiviral activity against HIV1. The class given is functional, organism-based.
Regarding `N=[S+]([O-])(C[C@H](Cc1ccccc1)C(=O)N[C@@H]1c2ccccc2C[C@@H]1O)C[C@H](Cc1ccccc1)C(=O)N[C@@H]1c2ccccc2C[C@@H]1O`, the IC50 was 408 nM.

Another experiment concerns the target Protease (Human immunodeficiency virus 1) (UniProt Q9YQ12). The experiment in a line: Inhibition of HIV1 recombinant protease at 10 uM.
For `O=C(N[C@H]1c2ccccc2C[C@H]1O)C(Cc1ccccc1)S(=O)(=O)C(Cc1ccccc1)C(=O)N[C@H]1c2ccccc2C[C@H]1O` (stereo partly specified), the inhibition was found to be 30%.

In the case of `O=C(N[C@H]1c2ccccc2C[C@H]1O)C(CSCC(Cc1ccccc1)C(=O)N[C@H]1c2ccccc2C[C@H]1O)Cc1ccccc1` (stereo partly specified), the inhibition was determined as 15%.

With `N=[S+]([O-])(C(Cc1ccccc1)C(=O)N[C@H]1c2ccccc2C[C@H]1O)C(Cc1ccccc1)C(=O)N[C@H]1c2ccccc2C[C@H]1O` (stereo partly specified), the inhibition was found to be 87%.

`O=C(N[C@H]1c2ccccc2C[C@H]1O)C(Cc1ccccc1)C[S+]([O-])CC(Cc1ccccc1)C(=O)N[C@H]1c2ccccc2C[C@H]1O` (stereo partly specified): the inhibition amounted to 75%.

The next experiment addresses Protease (Human immunodeficiency virus 1, UniProt Q9YQ12). In words: Inhibition of HIV1 recombinant protease.
For the compound `N=[S+]([O-])(C[C@H](Cc1ccccc1)C(=O)N[C@@H]1c2ccccc2C[C@@H]1O)C[C@H](Cc1ccccc1)C(=O)N[C@@H]1c2ccccc2C[C@@H]1O`, the IC50 was 2.5 nM.

Regarding `O=C(N[C@H]1c2ccccc2C[C@H]1O)[C@H](Cc1ccccc1)C[S+]([O-])C[C@H](Cc1ccccc1)C(=O)N[C@H]1c2ccccc2C[C@H]1O`, the 50% inhibitory concentration (IC50) amounted to 53.1 nM.

Turning to `O=C(N[C@H]1c2ccccc2C[C@H]1O)[C@@H](Cc1ccccc1)C[S+]([O-])C[C@H](Cc1ccccc1)C(=O)N[C@H]1c2ccccc2C[C@H]1O`, the IC50 was over 10000 nM.

As to `N=[S+]([O-])([C@H](Cc1ccccc1)C(=O)N[C@H]1c2ccccc2C[C@H]1O)[C@H](Cc1ccccc1)C(=O)N[C@H]1c2ccccc2C[C@H]1O`, the half-inhibitory concentration (IC50) is 154 nM.

For `N=[S+]([O-])([C@H](Cc1ccccc1)C(=O)N[C@H]1c2ccccc2C[C@H]1O)[C@@H](Cc1ccccc1)C(=O)N[C@H]1c2ccccc2C[C@H]1O`, the IC50 is 37.3 nM.

With `O=C(N[C@@H]1c2ccccc2C[C@@H]1O)[C@@H](Cc1ccccc1)C[S+]([O-])C[C@H](Cc1ccccc1)C(=O)N[C@@H]1c2ccccc2C[C@@H]1O` (single isomer, unassigned), the IC50 was 21.1 nM.

What is called IC50 is the concentration at which inhibition is half-maximal. By inhibition is commonly meant the change of the read-out against control, counted positive when it falls.
